Assay results taken from ChEMBL document CHEMBL1154370, “Palmyramide A, a cyclic depsipeptide from a Palmyra Atoll collection of the marine cyanobacterium Lyngbya majuscula” (J Nat Prod, 2010).

Experiments:
[1] = system: NCI-H460; test: Cytotoxicity against human H460 cells after 48 hrs by MTT assay; assay type: functional, cell-based; conditions: NCI-H460, 48 h
[2] = Inhibition of voltage-gated sodium channel in mouse Neuro2a cells assessed as suppression of quabain and veratridine-induced sodium overload cytotoxicity after 24 hrs by MTT assay; assay type: cell-based; conditions: N2a

CCC[C@H]1OC(=O)[C@H](C(C)C)NC(=O)[C@@H](C(C)C)N(C)C(=O)[C@@H]2CCCN2C(=O)[C@H](Cc2ccccc2)OC(=O)[C@H](C)OC(=O)C1(C)C [PALMYRAMIDE A]
IC50 [1]: 39.7 µM
IC50 [2]: 17.2 µM
